According to patent US7884136B2, “Modified-release formulations of a bupropion salt” (Biovail Laboratories International S.R.L., priority 2005, dated 2011):
Where two headings read alike, the source gives them in different places.

Tests used:
[1] = cited from earlier work
[2] = Accelerated stability study of bupropion HBr, closed bottles, 40° C./75% RH, 3 and 6 months, HPLC; format: physicochemical; settings: 40° C./R.H. 75%; for Chromatographic purity B) (HPLC): 4) 2-N-(tert-Butyl)-aminopropiophenone / Chromatographic purity B) (HPLC): 5) single unknown impurity (each): LOQ 0.02%, LOD 0.002%; for Chromatographic purity A) (HPLC): 1) 3′-Chloropropiophenone / Chromatographic purity A) (HPLC): 3) 3′-Chlorobenzoic acid / Chromatographic purity A) (HPLC): 2) 3′-Chloro-2-bromopropiophenone: LOQ 0.05%; for Chromatographic purity A) (HPLC): 1) 3′-Chloropropiophenone / Chromatographic purity A) (HPLC): 3) 3′-Chlorobenzoic acid: LOD 0.01%; for Chromatographic purity A) (HPLC): 2) 3′-Chloro-2-bromopropiophenone: LOD 0.04%; for Assay (HPLC): on d.b.; for Description: specification white or almost white crystalline powder; for Chromatographic purity B) (HPLC): 6) total unknown impurities: sum of all impurity peak areas
Protocol: The samples were prepared in closed bottles and placed in the stability chamber. HPLC analysis was conducted on the samples prior to placing them in the stability chamber (time 0), and after 3 months and 6 months. The amounts of the main degradation products present at time 0 were compared with those amounts present after 3 months and 6 months. […] For each sample tested, at each time period, two different HPLC assays were run. The first assay labelled chromatographic purity A, measured the percentage of three impurities 3′chloropropiophenone, 3′-Chloro-2-bromopropiophenone and 3′-Chlorobenzoic acid. The second assay, labelled chromatographic purity B, measured the percentage of 2-N-(tert-Butyl)-aminopropiophenone, a single unknown impurity and the total unknown impurities.

[3] = PEG-Fatty Acid Monoester Surfactants
[4] = Sorbitan Fatty Acid Ester Surfactants, as reported by the manufacturer
[5] = Lower Alcohol Fatty Acid Ester Surfactants, as reported by the manufacturer
[6] = Mono- and Diglyceride Surfactants
[7] = PEG-Fatty Acid Diester Surfactants
[8] = Transesterification Products of Oils and Alcohols
[9] = Propylene Glycol Fatty Acid Esters
[10] = Sugar Ester Surfactants, as reported by the manufacturer

PEG-7 oleate
HLB [1, 3]: 10.4

Sorbitan sesquistearate
HLB [1, 4]: 4.2

CCCCC/C=C\C/C=C\CCCCCCCC(=O)OCC [Ethyl linoleate]
HLB [1, 5]: <10

Br.CC(NC(C)(C)C)C(=O)c1cccc(Cl)c1 (centres unmarked) [Bupropion.HBr D00894]
Chromatographic purity (HPLC: A + B) Total impurities ([2]; 3 month): 0.1% | Water content (K.F.) ([2]; 3 month): 0.07% | Chromatographic purity B) (HPLC): 4) 2-N-(tert-Butyl)-aminopropiophenone ([2]; 3 month): 4)0.03% | Chromatographic purity B) (HPLC): 5) single unknown impurity (each) ([2]; 3 month): 5) 0.04% | Chromatographic purity A) (HPLC): 1) 3′-Chloropropiophenone ([2]; 3 month): 1) n.q. | Chromatographic purity A) (HPLC): 3) 3′-Chlorobenzoic acid ([2]; 3 month): 3) n.q. | Chromatographic purity A) (HPLC): 2) 3′-Chloro-2-bromopropiophenone ([2]; 3 month): 2) n.d. | Assay (HPLC) ([2]; 3 month): 99.6% | Description ([2]; 3 month): conform | Chromatographic purity B) (HPLC): 6) total unknown impurities ([2]; 3 month): 6) 0.06% | Chromatographic purity (HPLC: A + B) Total impurities ([2]; 6 months): 0.1% | Water content (K.F.) ([2]; 6 months): 0.08% | Chromatographic purity B) (HPLC): 4) 2-N-(tert-Butyl)-aminopropiophenone ([2]; 6 months): 4) 0.04% | Chromatographic purity B) (HPLC): 5) single unknown impurity (each) ([2]; 6 months): 5) n.q. | Chromatographic purity A) (HPLC): 1) 3′-Chloropropiophenone ([2]; 6 months): 1) 0.05% | Chromatographic purity A) (HPLC): 3) 3′-Chlorobenzoic acid ([2]; 6 months): 3) n.q. | Chromatographic purity A) (HPLC): 2) 3′-Chloro-2-bromopropiophenone ([2]; 6 months): 2) n.d. | Description ([2]; 6 months): conform | Chromatographic purity (HPLC: A + B) Total impurities ([2]; time 0): 0.1% | Water content (K.F.) ([2]; time 0): 0.05% | Chromatographic purity B) (HPLC): 4) 2-N-(tert-Butyl)-aminopropiophenone ([2]; time 0): 4) 0.04% | Chromatographic purity B) (HPLC): 5) single unknown impurity (each) ([2]; time 0): 5) 0.04% | Chromatographic purity A) (HPLC): 1) 3′-Chloropropiophenone ([2]; time 0): 1) n.d. | Chromatographic purity A) (HPLC): 3) 3′-Chlorobenzoic acid ([2]; time 0): 3) n.q. | Chromatographic purity A) (HPLC): 2) 3′-Chloro-2-bromopropiophenone ([2]; time 0): 2) n.d. | Assay (HPLC) ([2]; time 0): 99.6% | Description ([2]; time 0): conform | Chromatographic purity B) (HPLC): 6) total unknown impurities ([2]; time 0): 6) 0.04%

Br.CC(NC(C)(C)C)C(=O)c1cccc(Cl)c1 (centres unmarked) [Bupropion.HBr D00896]
Chromatographic purity (HPLC: A + B) Total impurities ([2]; 3 month): 0.1% | Water content (K.F.) ([2]; 3 month): 0.11% | Chromatographic purity B) (HPLC): 4) 2-N-(tert-Butyl)-aminopropiophenone ([2]; 3 month): 4) 0.03% | Chromatographic purity B) (HPLC): 5) single unknown impurity (each) ([2]; 3 month): 5) 0.04% | Chromatographic purity A) (HPLC): 1) 3′-Chloropropiophenone ([2]; 3 month): 1) n.q. | Chromatographic purity A) (HPLC): 3) 3′-Chlorobenzoic acid ([2]; 3 month): 3) n.q. | Chromatographic purity A) (HPLC): 2) 3′-Chloro-2-bromopropiophenone ([2]; 3 month): 2) n.d. | Assay (HPLC) ([2]; 3 month): 100.0% | Description ([2]; 3 month): conform | Chromatographic purity (HPLC: A + B) Total impurities ([2]; 6 months): 0.1% | Water content (K.F.) ([2]; 6 months): 0.04% | Chromatographic purity B) (HPLC): 4) 2-N-(tert-Butyl)-aminopropiophenone ([2]; 6 months): 4) 0.04% | Chromatographic purity B) (HPLC): 5) single unknown impurity (each) ([2]; 6 months): 5) n.q. | Chromatographic purity A) (HPLC): 1) 3′-Chloropropiophenone ([2]; 6 months): 1) 0.05% | Chromatographic purity A) (HPLC): 3) 3′-Chlorobenzoic acid ([2]; 6 months): 3) n.q. | Chromatographic purity A) (HPLC): 2) 3′-Chloro-2-bromopropiophenone ([2]; 6 months): 2) n.d. | Assay (HPLC) ([2]; 6 months): 100.4% | Description ([2]; 6 months): conform | Chromatographic purity B) (HPLC): 6) total unknown impurities ([2]; 6 months): 6) n.q. | Chromatographic purity (HPLC: A + B) Total impurities ([2]; time 0): 0.1% | Water content (K.F.) ([2]; time 0): 0.06% | Chromatographic purity B) (HPLC): 4) 2-N-(tert-Butyl)-aminopropiophenone ([2]; time 0): 4) 0.04% | Chromatographic purity B) (HPLC): 5) single unknown impurity (each) ([2]; time 0): 5) 0.05% | Chromatographic purity A) (HPLC): 1) 3′-Chloropropiophenone ([2]; time 0): 1) n.d. | Chromatographic purity A) (HPLC): 3) 3′-Chlorobenzoic acid ([2]; time 0): 3) n.q. | Chromatographic purity A) (HPLC): 2) 3′-Chloro-2-bromopropiophenone ([2]; time 0): 2) n.d. | Assay (HPLC) ([2]; time 0): 99.3% | Description ([2]; time 0): conform | Chromatographic purity B) (HPLC): 6) total unknown impurities ([2]; time 0): 6) 0.05%

Sorbitan monoisostearate
HLB [1, 4]: 4.7

PEG-40 stearate
HLB [1, 3]: >10

PEG-2 stearate
HLB [1, 3]: 4

CCCCCC(=O)OCC(O)CO (centres unmarked) [Monocaproin (C6)]
HLB [1, 6]: <10

PEG-5 oleate
HLB [1, 3]: 9.5

Polyglyceryl-6 pentaoleate
HLB ([1]; Polyglycerized Fatty Acids): <10

PEG-4 dilaurate [listing 1 of 2 here]
HLB [1, 7]: 6

PEG 400 dioleate
HLB [1, 3]: >10

PEG 100, 200, 300 monooleate
HLB [1, 3]: >10

Polyglyceryl-10 oleate
HLB ([1]; Polyglycerized Fatty Acids): 14

Polyglyceryl-2 stearate
HLB ([1]; Polyglycerized Fatty Acids): 5-7

CCCCCCCCCCCCCCCCCC(=O)OCC(COC(=O)CCCCCCCCCCCCCCCCC)(COC(=O)CCCCCCCCCCCCCCCCC)COC(=O)CCCCCCCCCCCCCCCCC [Pentaerythrityl tetrastearate]
HLB [1, 8]: <10

PEG-4 distearate
HLB [1, 7]: 5

CCCCCCCCCCCCCCCC(=O)OC[C@@H](O)[C@H]1OC[C@H](O)[C@H]1O [Sorbitan monopalmitate]
HLB [1, 4]: 6.7

PEG-24 cholesterol ether
HLB ([1]; Sterol and Sterol Derivative Surfactants): >10

PEG-30 glyceryl oleate
HLB ([1]; PEG Glycerol Fatty Acid Esters): >10

CCCCCCCCCCCCCCCC(=O)OCC(O)CO (centres unmarked) [Glycerol monopalmitate]
HLB [1, 6]: 4

PEG-4 dioleate
HLB [1, 7]: 6

CCCCCC[C@@H](O)C/C=C\CCCCCCCC(=O)OCC(O)CO (some centres unmarked) [Glyceryl ricinoleate]
HLB [1, 6]: 6

PEG-100 oleate
HLB [1, 3]: 18.8

Sorbitan monooleate
HLB [1, 4]: 4.3

CCCCCCCC(=O)OCC(C)OC(=O)CCCCCCC (centres unmarked) [Propylene glycol dicaprylate]
HLB [1, 9]: >6

PEG-4 dilaurate [listing 2 of 2 here]
HLB [1, 7]: 7

PEG-4 oleate
HLB [1, 3]: 8.3

CCCCCCCCCCCC(=O)OCC(O)CO (centres unmarked) [Glyceryl monolaurate]
HLB [1, 6]: 6.8

PEG-12 oleate
HLB [1, 3]: 14

CCCCCCCCCCCCCCCCCC(=O)OCC(CO)(CO)COC(=O)CCCCCCCCCCCCCCCCC [Pentaerythrityl distearate]
HLB [1, 8]: <10

Polyglyceryl-10 trioleate
HLB ([1]; Polyglycerized Fatty Acids): 7

PEG-8 dioleate
HLB [1, 7]: 8.8

Sucrose distearate
HLB [1, 10]: 3

CCCCCCCCCCCCCC(=O)OCC(O)CO (centres unmarked) [Glyceryl monomyristate (C14)]
HLB [1, 6]: 3-4

CCCCCCCC/C=C\CCCCCCCC(=O)OCC(COC(=O)CCCCCCC/C=C\CCCCCCCC)(COC(=O)CCCCCCC/C=C\CCCCCCCC)COC(=O)CCCCCCC/C=C\CCCCCCCC [Pentaerythrityl tetraoleate]
HLB [1, 8]: <10

PEG-1 stearate
HLB [1, 3]: 2

Polyglyceryl-2 oleate
HLB ([1]; Polyglycerized Fatty Acids): 5-7

Sucrose dipalmitate
HLB [1, 10]: 7.4

Pentaerythrityl tetraisostearate
HLB [1, 8]: <10

PEG-50 stearate
HLB [1, 3]: >10

PEG-12 dioleate
HLB [1, 7]: 10

Polyglyceryl-2 isostearate
HLB ([1]; Polyglycerized Fatty Acids): 5-7

PEG 4-100 monooleate
HLB [1, 3]: >8

CCCCCCCCCC(=O)OCC(C)OC(=O)CCCCCCCCC (centres unmarked) [Propylene glycol dicaprate]
HLB [1, 9]: >6

PEG 100, 200, 300 monolaurate
HLB [1, 3]: >10

Glyceryl dioleate
HLB [1, 6]: 3-4

Sorbitan monostearate
HLB [1, 4]: 4.7

PEG 400 distearate
HLB [1, 3]: >10

CCCCCCCC/C=C/CCCCCCCC(=O)OCC(O)CO (centres unmarked) [Monoelaidin (C18:1)]
HLB [1, 6]: <10

CCCCCCCCCCCCCC(=O)OC(C)C [Isopropyl myristate]
HLB [1, 5]: <10

Polyglyceryl-10 septaoleate
HLB ([1]; Polyglycerized Fatty Acids): 3

Br.CC(NC(C)(C)C)C(=O)c1cccc(Cl)c1 (centres unmarked) [Bupropion.HBr D00895]
Chromatographic purity (HPLC: A + B) Total impurities ([2]; 3 month): 0.1% | Water content (K.F.) ([2]; 3 month): 0.07% | Chromatographic purity B) (HPLC): 4) 2-N-(tert-Butyl)-aminopropiophenone ([2]; 3 month): 4) 0.03% | Chromatographic purity B) (HPLC): 5) single unknown impurity (each) ([2]; 3 month): 5) 0.04% | Chromatographic purity A) (HPLC): 1) 3′-Chloropropiophenone ([2]; 3 month): 1) n.q. | Chromatographic purity A) (HPLC): 3) 3′-Chlorobenzoic acid ([2]; 3 month): 3) 0.05% | Chromatographic purity A) (HPLC): 2) 3′-Chloro-2-bromopropiophenone ([2]; 3 month): 2) n.d. | Assay (HPLC) ([2]; 3 month): 100.7% | Description ([2]; 3 month): conform | Chromatographic purity B) (HPLC): 6) total unknown impurities ([2]; 3 month): 6) 0.05% | Chromatographic purity (HPLC: A + B) Total impurities ([2]; 6 months): 0.1% | Water content (K.F.) ([2]; 6 months): 0.07% | Chromatographic purity B) (HPLC): 4) 2-N-(tert-Butyl)-aminopropiophenone ([2]; 6 months): 4) 0.04% | Chromatographic purity B) (HPLC): 5) single unknown impurity (each) ([2]; 6 months): 5) n.q. | Chromatographic purity A) (HPLC): 1) 3′-Chloropropiophenone ([2]; 6 months): 1) 0.05% | Chromatographic purity A) (HPLC): 3) 3′-Chlorobenzoic acid ([2]; 6 months): 3) n.q. | Chromatographic purity A) (HPLC): 2) 3′-Chloro-2-bromopropiophenone ([2]; 6 months): 2) n.d. | Assay (HPLC) ([2]; 6 months): 99.7% | Description ([2]; 6 months): conform | Chromatographic purity B) (HPLC): 6) total unknown impurities ([2]; 6 months): 6) 0.02% | Chromatographic purity (HPLC: A + B) Total impurities ([2]; time 0): 0.1% | Water content (K.F.) ([2]; time 0): 0.04% | Chromatographic purity B) (HPLC): 4) 2-N-(tert-Butyl)-aminopropiophenone ([2]; time 0): 4) 0.04% | Chromatographic purity B) (HPLC): 5) single unknown impurity (each) ([2]; time 0): 5) 0.04% | Chromatographic purity A) (HPLC): 1) 3′-Chloropropiophenone ([2]; time 0): 1) n.d. | Chromatographic purity A) (HPLC): 3) 3′-Chlorobenzoic acid ([2]; time 0): 3) n.q. | Chromatographic purity A) (HPLC): 2) 3′-Chloro-2-bromopropiophenone ([2]; time 0): 2) n.d. | Assay (HPLC) ([2]; time 0): 99.2% | Description ([2]; time 0): conform
